Results published in PMC9837035 (Nature Communications, 2023).
“And” between values parts separate entries of the source, which are not always exact repeats. Identical values can stand only once. Values belong to the compound of their own block, whether it stands above or below them.

Key:
HUDEP-2 cells = test: Cell viability assay (WST-8), HUDEP-2; type: cell-based, human; conditions: control (0 μM) = 100
Method: (§1) A WST-8 (2-(2-methoxy-4-nitrophenyl)-3-(4-nitrophenyl)-5-(2,4-disulfophenyl)-2H-tetrazolium) assay using a Cell Counting Kit-8 (DOJINDO) was performed to measure cell viability using an EnSpire microplate reader (PerkinElmer).

mice = test: Mouse acute toxicity assay, survival; type: in vivo; conditions: intravenous, 2-week observation
Method: All animal studies were approved by the Institutional Committee for Animal Experiments of the Institute of Microbial Chemistry, and were performed in accordance with relevant guidelines and regulations to minimize animal suffering. Four-week-old female ICR mice were purchased from Charles River Breeding Laboratories (Yokohama, Japan) and maintained in a specific pathogen-free barrier facility. […] Samples were dissolved in saline containing 10% DMSO and 1% Tween 80 and injected intravenously into mice.

[1] = system: rat myoblast cell line H9c2; test: Cell viability assay (WST-8), H9c2; type: cell-based; conditions: control (0 μM) = 100
Method: as §1

[2] = system: Salmonella typhimurium TA98; test: Ames test, TA98
Method: (§2) The Salmonella mutagenicity assay was performed by pre-incubating the test compounds for 20 min with Salmonella typhimurium strains TA98 and TA100, with and without metabolic activation (S9 mixture).
(§3) After this time 2 mL of top agar was added to the mixture and poured on to a plate containing minimum agar. The plates were incubated at 37 °C for 49 h and the His ± revertant colonies were counted manually and automatically by a colony counter (Colony analyzer CA-11D systems, System science Co.,Ltd.). The influence of metabolic activation was tested by adding 500 μL of 10% S9 mixture. All experiments were performed in duplicate. […] DMSO served as the negative control (100 μL/plate). The mutagenic index (MI, the average number of revertants per plate divided by the average number of revertants per plate from the negative control) was also calculated for each dose. A sample was considered positive when the MI was equal to or greater than 2 for at least one of the tested doses.

[3] = system: Salmonella typhimurium TA100; test: Ames test, TA100
Method: as §2, §3

[4] = system: BGLT3-knockdown HUDEP-2 cells; test: RT-qPCR of BGLT3, β- and γ-globin in BGLT3-knockdown HUDEP-2 cells; type: cell-based, human; conditions: 1 μM, relative to shctrl DMSO = 1, replicate values
Method: (§4) Total cellular RNA was prepared using the Tissue Total RNA Mini Kit (FAVORGEN), and cDNA was synthesized using ReverTra Ace Master Mix (TOYOBO). Expression of target genes was analyzed using THUNDERBIRD SYBR qPCR Mix (TOYOBO) on a CFX Connect Real Time System (Bio-Rad). The qPCR data were acquired on CFX Maestro (Bio-Rad). Primers are listed in Supplementary Table 10. GAPDH was used as a reference. Primers were purchased from INTEGRATED DNA TECHNOLOGIES or FASMAC.
Retroviral infection was used as previously described to establish cell lines stably expressing BGLT3 and transfected with the pCX4-pur vector, as well as knockdown cell lines transfected with the pSUPER vector[58]. Briefly, retroviruses were produced by transfecting PLAT-E cells with pCX4-pur-BGLT3 or pSUPER-ctrl, pSUPER-BGLT3, or pSUPER-G9a using 5 μg/mL polyethylenimine MAX (PEI MAX, Polysciences). Two days after transfection, the culture supernatant was collected and filtered through a 0.45-μm filter (Millipore) and used for infection with 8 μg/mL polybrene (Sigma). Forty-eight hours after infection, the infected cells were selected with 0.2 μg/mL puromycin (InvivoGen). The clonal puromycin-resistant cells were established via limiting dilution. The desired clones were confirmed by western blotting or qPCR.

[5] = system: BGLT3 RNA in HUDEP-2 cells; test: RT-qPCR of BGLT3 in HUDEP-2 cells; type: cell-based, human; conditions: relative to DMSO = 1, replicate values; for BGLT3 expression in HUDEP-2 cells: Sup.Fig.11a
Method: as §4

G9a = biological target: T1, G9a (Homo sapiens, UniProt Q96KQ7); test: In vitro G9a methyltransferase assay (AlphaLISA-based); type: biochemical; parameters: purchased BPS Bioscience
T1 sequence (Q96KQ7 1-1210): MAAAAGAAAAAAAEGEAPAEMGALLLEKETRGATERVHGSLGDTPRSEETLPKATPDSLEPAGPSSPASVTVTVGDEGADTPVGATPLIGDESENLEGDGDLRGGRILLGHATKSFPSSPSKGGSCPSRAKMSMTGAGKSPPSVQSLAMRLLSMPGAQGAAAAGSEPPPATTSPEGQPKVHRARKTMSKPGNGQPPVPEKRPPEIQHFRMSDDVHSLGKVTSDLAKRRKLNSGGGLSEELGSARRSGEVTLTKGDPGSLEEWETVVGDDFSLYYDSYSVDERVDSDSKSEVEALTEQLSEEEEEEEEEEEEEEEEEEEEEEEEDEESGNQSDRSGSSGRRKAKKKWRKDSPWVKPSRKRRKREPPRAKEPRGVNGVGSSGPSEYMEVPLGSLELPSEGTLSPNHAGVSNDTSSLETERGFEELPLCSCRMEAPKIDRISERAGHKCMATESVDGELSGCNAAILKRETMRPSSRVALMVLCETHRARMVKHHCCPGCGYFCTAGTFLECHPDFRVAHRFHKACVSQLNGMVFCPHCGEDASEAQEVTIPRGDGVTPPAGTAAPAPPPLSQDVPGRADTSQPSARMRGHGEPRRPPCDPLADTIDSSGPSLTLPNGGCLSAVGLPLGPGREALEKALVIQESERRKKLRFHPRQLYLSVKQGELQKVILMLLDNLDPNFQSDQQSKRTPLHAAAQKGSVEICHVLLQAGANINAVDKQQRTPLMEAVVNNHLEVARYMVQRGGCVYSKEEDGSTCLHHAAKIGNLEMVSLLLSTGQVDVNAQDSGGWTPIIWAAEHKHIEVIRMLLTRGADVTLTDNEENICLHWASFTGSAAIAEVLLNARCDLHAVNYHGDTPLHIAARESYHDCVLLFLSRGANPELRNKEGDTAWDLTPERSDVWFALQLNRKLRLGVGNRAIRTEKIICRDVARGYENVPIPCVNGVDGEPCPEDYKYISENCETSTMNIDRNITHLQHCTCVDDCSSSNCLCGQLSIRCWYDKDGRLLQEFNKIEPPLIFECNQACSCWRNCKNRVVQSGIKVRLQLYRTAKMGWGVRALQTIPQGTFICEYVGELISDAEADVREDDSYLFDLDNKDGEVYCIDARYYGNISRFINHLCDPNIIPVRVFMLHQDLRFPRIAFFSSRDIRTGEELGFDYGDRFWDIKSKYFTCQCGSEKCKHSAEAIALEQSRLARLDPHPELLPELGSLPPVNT
Method: An amplified luminescence proximity homogeneous assay (ALPHA) was performed with a modified version of a previously described method. Recombinant G9a proteins (BPS Bioscience) were incubated with 15 μM S-adenosyl-methionine (Sigma) and 50 nM biotinylated histone H3 (1-21; AnaSpec) in the assay buffer (50 mM Tris-HCl (pH 9.0), 50 mM NaCl, 0.01% Tween-20, and 1 mM DTT). After incubation at room temperature for 1 h, AlphaLISA anti-H3K9me2 acceptor beads (final concentration 10 μg/mL, PerkinElmer, AL117C) and AlphaScreen streptavidin donor beads (final concentration 10 μg/mL, PerkinElmer, 6760002B) were added and incubated for an additional 1 h prior to detection of the alpha signal with an EnSpire Alpha plate reader (PerkinElmer). ALPHA profile was analyzed using Origin (OriginLab).

[6] = system: β- and γ-globin genes in HUDEP-2 cells; test: RT-qPCR of β- and γ-globin in HUDEP-2 cells; type: cell-based, human; conditions: single agents or combination; relative to DMSO = 1; replicate values
Method: as §4

[7] = G9a activity, AlphaLISA-based assay, mean of three experiments
[8] = Sup.Table1, three replicate values

Compound: COc1cc2c(cc1OCCCN1CCCC1)N=C(N)C21CCC1 [A-366]
cell viability in HUDEP-2 cells (HUDEP-2 cells; 0.00457247 μM): 82.0673 and 97.2549 and 93.6968
cell viability in HUDEP-2 cells (HUDEP-2 cells; 0.0137174 μM): 88.332 and 96 and 98.8075
cell viability in HUDEP-2 cells (HUDEP-2 cells; 0.0411523 μM): 83.007 and 93.4902 and 87.9046
cell viability in HUDEP-2 cells (HUDEP-2 cells; 0.123457 μM): 84.5732 and 96 and 89.6082
cell viability in HUDEP-2 cells (HUDEP-2 cells; 0.37037 μM): 79.2482 and 92.549 and 93.6968
cell viability in HUDEP-2 cells (HUDEP-2 cells; 1.11111 μM): 81.1276 and 90.6667 and 88.586
cell viability in HUDEP-2 cells (HUDEP-2 cells; 3.33333 μM): 67.9718 and 80.3137 and 66.7802
cell viability in HUDEP-2 cells (HUDEP-2 cells; 10 μM): 52.3101 and 64.9412 and 58.9438
Number of alive mice (mice; 0.1953125 mg/kg): 3/3
Number of alive mice (mice; 0.390625 mg/kg): 3/3
Number of alive mice (mice; 0.78125 mg/kg): 3/3
Number of alive mice (mice; 1.5625 mg/kg): 0/3
Number of alive mice (mice; 3.125 mg/kg): 0/3
cell viability in H9c2 cells ([1]; 0.039 μM): 104.360 and 99.467 and 89.907
cell viability in H9c2 cells ([1]; 0.156 μM): 95.640 and 83.067 and 81.211
cell viability in H9c2 cells ([1]; 0.625 μM): 92.264 and 78.533 and 78.882
cell viability in H9c2 cells ([1]; 2.5 μM): 78.059 and 64.000 and 71.429
cell viability in H9c2 cells ([1]; 10.0 μM): 53.868 and 49.733 and 52.329

Compound: NC(=O)C(=Cc1ccc([N+](=O)[O-])o1)c1ccco1 [AF-2, 2-(2-furyl)-3-(5-nitro-2-furyl)acrylamide, reference compound]
Number of reverants/plate ([2]; TA98, - S9, frameshift mutation, 0.1 μg/plate): 497 and 507
Number of revertants/plate ([2]; TA98, -S9, 0.1 μg/plate, positive control): 502
Number of reverants/plate ([3]; TA100, - S9, base pair substitution mutation, 0.01 μg/plate): 725 and 728
Number of revertants/plate ([3]; TA100, -S9, 0.01 μg/plate, positive control): 727

Compound: Nc1ccccc1NC(=O)c1ccc(CNC(=O)OCc2cccnc2)cc1 [MS-275]
β-globin gene in BGLT3-knockdown HUDEP-2 cells ([4]; shBGLT3 #1): 3.1513 and 3.12 and 3.5502
γ-globin gene in BGLT3-knockdown HUDEP-2 cells ([4]; shBGLT3 #1): 20.155 and 19.0925 and 20.8632
β-globin gene in BGLT3-knockdown HUDEP-2 cells ([4]; shBGLT3 #2): 2.766 and 2.148 and 2.288
γ-globin gene in BGLT3-knockdown HUDEP-2 cells ([4]; shBGLT3 #2): 8.523 and 7.607 and 25.7598
β-globin gene in BGLT3-knockdown HUDEP-2 cells ([4]; shBGLT3 #3): 1.145 and 1.259 and 1.535
γ-globin gene in BGLT3-knockdown HUDEP-2 cells ([4]; shBGLT3 #3): 19.0595 and 19.9736 and 20.0664
β-globin gene in BGLT3-knockdown HUDEP-2 cells ([4]; shctrl): 4.7699 and 6.2041 and 4.688
γ-globin gene in BGLT3-knockdown HUDEP-2 cells ([4]; shctrl): 47.2575 and 62.7038 and 44.6998
BGLT3 expression in HUDEP-2 cells [5]: 14.3147 and 21.8274 and 19.7082

IC50 (G9a; [7]): 21.3 µM
IC50 (G9a; [8]): 24.6 µM and 20.7 µM and 18.7 µM
Compound: COC(=O)c1ccc2nc([C@H](CCSC)NC(=O)c3[nH]c4c(c3C)C(=O)CC(C)(C)C4)[nH]c2c1 [compound 8]

IC50 (G9a; [7]): 0.3 µM
IC50 (G9a; [8]): 0.299 µM and 0.291 µM and 0.316 µM
Compound: CSCC[C@H](NC(=O)c1[nH]c2c(c1C)C(=O)CC(C)(C)C2)C(=O)Nc1ccccc1 [compound 9]

Compound: Nc1ncn([C@H]2C[C@H](O)[C@@H](CO)O2)c(=O)n1 [decitabine]
β-globin gene in BGLT3-knockdown HUDEP-2 cells ([4]; shBGLT3 #1): 0.735 and 0.7829 and 0.8722
γ-globin gene in BGLT3-knockdown HUDEP-2 cells ([4]; shBGLT3 #1): 2.413 and 2.581 and 2.465
β-globin gene in BGLT3-knockdown HUDEP-2 cells ([4]; shBGLT3 #2): 0.6218 and 0.5853 and 0.4869
γ-globin gene in BGLT3-knockdown HUDEP-2 cells ([4]; shBGLT3 #2): 2.574 and 2.659 and 3.171
β-globin gene in BGLT3-knockdown HUDEP-2 cells ([4]; shBGLT3 #3): 0.8092 and 0.8421 and 1.086
γ-globin gene in BGLT3-knockdown HUDEP-2 cells ([4]; shBGLT3 #3): 1.425 and 1.467 and 1.465
β-globin gene in BGLT3-knockdown HUDEP-2 cells ([4]; shctrl): 0.8786 and 0.8917 and 0.7285
γ-globin gene in BGLT3-knockdown HUDEP-2 cells ([4]; shctrl): 8.583 and 10.749 and 7.48
BGLT3 expression in HUDEP-2 cells [5]: 2.269 and 2.6404 and 2.1358
BGLT3 expression in HUDEP-2 cells treated with RK-701 and decitabine ([5]; single agents or combination): 3.3143 and 2.772 and 4.351
β-globin expression in HUDEP-2 cells treated with RK-701 and decitabine [6]: 0.9105 and 1.679 and 1.802
γ-globin expression in HUDEP-2 cells treated with RK-701 and decitabine [6]: 5.299 and 8.189 and 8.892
